Data taken from patent publication US20200405666A9, “TREATMENT OF SYMPTOMS ASSOCIATED WITH FEMALE GASTROPARESIS” (priority 2011, published 2020).

Test system: symptoms of diabetic gastroparesis
Experiment: Phase 2 randomized, double-blind, placebo-controlled study METO-IN-002 of metoclopramide nasal spray: symptom scores (mGCSI-DD, GCSI-DD, PAGI-SYM, other endpoints)
Format: in vivo, human
Parameters: key to Stomach Fullness / Early Satiety / Feeling Full / Loss of Appetite / Bloating / Stomach Larger / Upper Abdominal Pain / Upper Abdominal Discomfort / mGCSI-DD (primary endpoint) / Nausea / Retching / Vomiting / Sheehan Disability Scales / Investigator Assessment of Overall Gastroparesis Severity / Subject Assessment of Overall Gastroparesis Severity / Investigator Assessment of Overall Treatment Effect / Subject Assessment of Overall Treatment Effect / Days w/o Vomiting / Days w/o Nausea / Days w/o Vomiting or Nausea / Days w/o Upper Abdominal Pain or Upper Abdominal Discomfort / Nausea Response by Response Threshold / GCSI-DD / Days w/o Vomiting or Retching &, No Use of Rescue Medication / Nausea Responder Analysis / Overall Severity of Gastroparesis Symptoms - Subject / PAGI-SYM Questionnaire / Nausea/Vomiting (listed under PAGI-SYM Questionnaire) / Bloating (listed under PAGI-SYM Questionnaire) / Upper Abdominal Pain/Discomfort (listed under PAGI-SYM Questionnaire) / Early Satiety (listed under PAGI-SYM Questionnaire): A=Favors Active; P=Favors Placebo
Conditions: for mGCSI-DD (primary endpoint) / Bloating / Bloating (listed under PAGI-SYM Questionnaire) / Days w/o Nausea / Days w/o Upper Abdominal Pain or Upper Abdominal Discomfort / Days w/o Vomiting / Days w/o Vomiting or Nausea / Days w/o Vomiting or Retching &, No Use of Rescue Medication / Early Satiety / Early Satiety (listed under PAGI-SYM Questionnaire) / Feeling Full / GCSI-DD / Investigator Assessment of Overall Gastroparesis Severity / Investigator Assessment of Overall Treatment Effect / Loss of Appetite / Nausea / Nausea Responder Analysis / Nausea Response by Response Threshold / Nausea/Vomiting (listed under PAGI-SYM Questionnaire) / Overall Severity of Gastroparesis Symptoms - Subject / PAGI-SYM Questionnaire / Retching / Sheehan Disability Scales / Stomach Fullness / Stomach Larger / Subject Assessment of Overall Gastroparesis Severity / Subject Assessment of Overall Treatment Effect / Upper Abdominal Discomfort / Upper Abdominal Pain / Upper Abdominal Pain/Discomfort (listed under PAGI-SYM Questionnaire) / Vomiting: Week 4, vs placebo
Description: Example 1: A Multicenter, Randomized, Double-Blind, Placebo-Controlled, Parallel Group, Dose-Ranging Clinical Study to Evaluate the Efficacy and Safety of Metoclopramide Nasal Spray Solution in Diabetic Subjects with Gastroparesis
The objectives of this study were to evaluate the safety and the effectiveness of two doses of metoclopramide nasal spray solution, 10 mg and 14 mg, compared to placebo in reducing the symptoms of diabetic gastroparesis and to assess the plasma concentrations of two doses of metoclopramide nasal spray in subjects with diabetic gastroparesis following a single dose and at steady state. The aforementioned dosages for the treatment and control of gastroparesis were administered before meals and/or before bed time. Subjects who met the entry criteria after the Washout Period (Day −7 to Day −1) were randomized using an IVRS, to metoclopramide nasal spray 10 mg, 14 mg, or placebo, in roughly equal numbers (approximately 1:1:1) using a predetermined randomization schedule employing permuted blocks. Randomization was preformed centrally.
Metoclopramide nasal spray solution, 200 mg/mL base (as monohydrochloride monohydrate) is a clear colorless to pale-yellow aqueous solution manufactured for Evoke Pharma. The metoclopramide nasal spray was packaged in a 10 mL amber glass vial mounted with a metered nasal spray pump. The metered dose vial delivered a 50 μL or 70 μL spray (10 mg or 14 mg of metoclopramide base respectively) with each actuation. One 10 mL vial contained sufficient metoclopramide nasal spray to deliver 120 doses of 10 mg or 14 mg.
A vehicle control was used as the placebo for metoclopramide nasal spray solution. The placebo spray was packaged in a 10 mL amber glass vial mounted with a metered nasal spray pump. The metered dose vial delivered a 50 μL spray with each actuation. One 10 mL vial contained sufficient placebo to deliver 120 doses. The delivery of either a 50 μL or 70 μL spray is indistinguishable to the subject or study staff.
A 7-day Washout Period preceded randomization. During this time, and for the duration of the study, subjects were asked to discontinue use of all medications that are known to ameliorate or exacerbate symptoms associated with diabetic gastroparesis. Subjects were trained on the use of an interactive voice response system (IVRS) to record the severity of nine gastroparesis symptoms of the GCSI-DD and additional symptoms such as: severity of abdominal pain and abdominal discomfort, number of hours of nausea, number of episodes of vomiting, and overall severity of gastroparesis symptoms in a daily diary. The IVRS was used during the treatment period for self-reported assessments. Subjects completed these diary assessments via the IVRS each evening.
Subjects with a mean GCSI-DD total score of <2.0 or >4.0 during the 7-day Washout Period were excluded from the study.
At the Randomization Visit (Day 0), the Patient Assessment of Upper Gastrointestinal Disorders Symptoms (PAGI-SYM) Questionnaire, and disability questionnaires were administered to the subject and the Investigator and subject assessed overall gastroparesis symptom severity (OGS) prior to taking study drug. Subjects began taking the study drug at the clinical site with a single dose on Day 0. The subjects returned to the clinic for safety and efficacy evaluations on Visits 4, 5, 6, and 7 (Days 7, 14, 21, and 28).
At each scheduled study visit to the clinical study site, the IVRS daily diary compliance was reviewed. In addition, at Visit 5 (Day 14), the PAGI-SYM Questionnaire was administered to the subject and the Investigator and subject assessed OGS severity. At the Final Visit (Day 28) subjects took their last dose of study drug at the clinical site and returned their vial of unused/remaining study drug. The subject completed the PAGI-SYM, and disability questionnaires. The Investigator and subject assessed OGS and overall treatment effect (OTE). […]

[1] = males, 10 mg IN four times daily
[2] = males, 10 mg IN four times daily, listed as Metoclopramide
[3] = males, 14 mg IN four times daily

SMILES: CCN(CC)CCNC(=O)c1cc(Cl)c(N)cc1OC [metoclopramide, -amino-5-chloro-N-(2-(diethylamino)ethyl)-2-methoxybenzamide]
- mGCSI-DD (primary endpoint) (females, 14 mg IN four times daily): A (p < 0.05)
- Mean mGCSI-DD total score at Week 4 (females, 14 mg IN four times daily, listed as Metoclopramide): 1.7
- Difference of Least Square Means, mGCSI-DD change from Baseline to Week 4 (females, 14 mg IN vs Metoclopramide 10 mg): −0.00
- Difference of Least Square Means, mGCSI-DD change from Baseline to Week 4 (females, 14 mg IN vs placebo): −0.38
- Symptoms that showed a positive trend (male subjects, 11 symptoms collected): 1 of 11
- Statistically significant improvement in mGCSI-DD score (in words) (males, 10 mg IN and 14 mg IN arms, Baseline to Week 4): did not experience significant improvement
- Mean Change from Baseline to Week 4 in mGCSI-DD [1]: −1.2 (−1.2)
- Mean mGCSI-DD total score at Week 4 [1]: 1.6 (1.6)
- Bloating [1]: P
- Bloating (listed under PAGI-SYM Questionnaire) [1]: P
- Days w/o Nausea [1]: P
- Days w/o Upper Abdominal Pain or Upper Abdominal Discomfort [1]: P
- Days w/o Vomiting [1]: P
- Days w/o Vomiting or Nausea [1]: P
- Days w/o Vomiting or Retching &, No Use of Rescue Medication [1]: A
- Early Satiety [1]: P
- Early Satiety (listed under PAGI-SYM Questionnaire) [1]: P
- Feeling Full [1]: P
- GCSI-DD [1]: P
- Investigator Assessment of Overall Gastroparesis Severity [1]: P
- Investigator Assessment of Overall Treatment Effect [1]: A
- Loss of Appetite [1]: P
- Nausea [1]: P
- Nausea Responder Analysis [1]: P
- Nausea Response by Response Threshold [1]: P
- Nausea/Vomiting (listed under PAGI-SYM Questionnaire) [1]: P
- Overall Severity of Gastroparesis Symptoms - Subject [1]: A
- PAGI-SYM Questionnaire [1]: P
- Retching [1]: P
- Sheehan Disability Scales [1]: A
- Stomach Fullness [1]: P
- Stomach Larger [1]: P
- Subject Assessment of Overall Gastroparesis Severity [1]: P
- Subject Assessment of Overall Treatment Effect [1]: A
- Upper Abdominal Discomfort [1]: P
- Upper Abdominal Pain [1]: P
- Upper Abdominal Pain/Discomfort (listed under PAGI-SYM Questionnaire) [1]: P
- Vomiting [1]: A
- mGCSI-DD (primary endpoint) [1]: P
- Mean Change from Baseline to Week 4 in mGCSI-DD [2]: −1.2
- Mean mGCSI-DD total score at Week 4 [2]: 1.6
- Difference of Least Square Means, mGCSI-DD change from Baseline to Week 4 (males, 10 mg IN vs placebo): 0.18
- Mean Change from Baseline to Week 4 in mGCSI-DD [3]: −0.9
- Mean mGCSI-DD total score at Week 4 [3]: 1.7 (1.7)
- Bloating [3]: P
- Bloating (listed under PAGI-SYM Questionnaire) [3]: P (p < 0.05)
- Days w/o Nausea [3]: P
- Days w/o Upper Abdominal Pain or Upper Abdominal Discomfort [3]: P (p < 0.05)
- Days w/o Vomiting [3]: P
- Days w/o Vomiting or Nausea [3]: P
- Days w/o Vomiting or Retching &, No Use of Rescue Medication [3]: A
- Early Satiety [3]: P (p < 0.05) and P
- Early Satiety (listed under PAGI-SYM Questionnaire) [3]: P (p < 0.05)
- Feeling Full [3]: P
- GCSI-DD [3]: P
- Investigator Assessment of Overall Gastroparesis Severity [3]: P
- Investigator Assessment of Overall Treatment Effect [3]: P
- Loss of Appetite [3]: P (p < 0.05)
- Nausea [3]: P
- Nausea Responder Analysis [3]: P
- Nausea Response by Response Threshold [3]: P
- Nausea/Vomiting (listed under PAGI-SYM Questionnaire) [3]: P
- Overall Severity of Gastroparesis Symptoms - Subject [3]: A
- PAGI-SYM Questionnaire [3]: P
- Retching [3]: P
- Sheehan Disability Scales [3]: A
- Stomach Fullness [3]: P
- Stomach Larger [3]: P (p < 0.05)
- Subject Assessment of Overall Gastroparesis Severity [3]: P
- Subject Assessment of Overall Treatment Effect [3]: P
- Upper Abdominal Discomfort [3]: P
- Upper Abdominal Pain [3]: P
- Upper Abdominal Pain/Discomfort (listed under PAGI-SYM Questionnaire) [3]: P
- Vomiting [3]: A
- mGCSI-DD (primary endpoint) [3]: P
- Mean mGCSI-DD total score at Week 4 (males, 14 mg IN four times daily, listed as Metoclopramide): 1.7
- Difference of Least Square Means, mGCSI-DD change from Baseline to Week 4 (males, 14 mg IN vs Metoclopramide 10 mg): 0.14
- Difference of Least Square Means, mGCSI-DD change from Baseline to Week 4 (males, 14 mg IN vs placebo): 0.32
